From patent publication US8431593B2, “Heteroaryl amide derivatives” (H. Lundbeck A/S, priority 2006, dated 2013)

Each compound was assayed against T1, P2X7 receptor (Homo sapiens, UniProt Q99572) (assay: P2X7 calcium mobilization assay, high throughput, antagonist activity (Example 4A)). Conditions: not given.
T1 construct: host or cells: SH-SY5Y
T1 sequence (Q99572 1-595): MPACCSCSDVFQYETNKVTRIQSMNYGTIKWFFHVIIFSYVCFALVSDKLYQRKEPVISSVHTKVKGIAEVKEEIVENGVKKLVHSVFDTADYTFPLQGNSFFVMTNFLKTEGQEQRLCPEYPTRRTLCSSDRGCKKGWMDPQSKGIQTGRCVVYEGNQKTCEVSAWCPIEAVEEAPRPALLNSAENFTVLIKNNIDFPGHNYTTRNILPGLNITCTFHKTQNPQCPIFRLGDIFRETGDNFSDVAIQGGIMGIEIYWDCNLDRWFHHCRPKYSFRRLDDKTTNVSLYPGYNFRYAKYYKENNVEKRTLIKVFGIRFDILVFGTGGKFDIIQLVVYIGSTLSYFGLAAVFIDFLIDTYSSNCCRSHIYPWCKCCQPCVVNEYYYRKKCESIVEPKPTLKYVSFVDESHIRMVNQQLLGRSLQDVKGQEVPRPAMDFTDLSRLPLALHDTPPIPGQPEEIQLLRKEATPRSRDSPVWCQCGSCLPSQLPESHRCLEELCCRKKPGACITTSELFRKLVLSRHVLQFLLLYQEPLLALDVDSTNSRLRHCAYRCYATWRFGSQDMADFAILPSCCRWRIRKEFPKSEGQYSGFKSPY
Type: cell-based
Method: One day prior to the experiment, cells are plated at a density of 100,000 cells/well in a 96 well black/clear TC plate (Corning® Costar®, Sigma-Aldrich Co., St. Louis, Mo.). […] After one hour dye incubation, wells are rinsed once with 50 μL assay solution, and are then incubated for an hour at room temperature with 100 μL assay solution containing the test compound. […] After the one hour incubation, plates are transferred to a FLIPR^TETRA instrument (Molecular Devices, Sunnyvale, Calif.) for calcium mobilization analysis.
First, the average maximum relative fluorescent unit (RFU) response from the negative control wells (no agonist) is subtracted from the maximum response detected for each of the other experimental wells. Second, average maximum RFU response is calculated for the positive control wells (agonist wells).

SMILES | IC50 [nM]
CCCNC(=O)Cc1cn2c(C(=O)NCC34CC5CC(CC(C5)C3)C4)cccc2n1 [Compound 146, N-(adamantan-1-ylmethyl)-2-[2-oxo-2-(propylamino)ethyl]imi-dazo[1,2-a]pyridine-5-carboxamide] | < 2000
O=C(Cc1cn2c(C(=O)NCC34CC5CC(CC(C5)C3)C4)cccc2n1)NCCCO [Compound 27, N-(adamantan-1-ylmethyl)-2-{2-[(3-hydroxypropyl)amino]-2-oxoethyl}imi-dazo[1,2-a]pyridine-5-carboxamide] | < 2000
O=C(NCCO)c1cn2c(C(=O)NCC34CC5CC(CC(C5)C3)C4)cccc2n1 [Compound 8, 5-N-(adamantan-1-ylmethyl)--(2-hydroxyethyl)imi-dazo[1,2-a]pyridine-2,5-dicarboxamide] | < 2000

Same assay, conditions: 50% decrease in the fluorescence response of cells exposed to 80 μM 2′(3′)-O-(4-benzoyl-benzoyl)adenosine 5′-triphosphate; Example 4A; read-out: IC50

IC50 [nM] | SMILES
< 2000 | COCCCN(C(=O)Cc1cn2c(C(=O)NC[C@@H]3CC[C@@H]4C[C@H]3C4(C)C)cccc2n1)C1CCNCC1(C)C (stereo partly drawn) [Compound 572, N-{[(1R,2R,5R)-6,6-dimethylbicyclo[3.1.1]hept-2-yl]methyl}-2-{2-[(3,3-dimethylpiperidin-4-yl)(3-methoxy-propyl)amino]-2-oxoethyl} imidazo[1,2-a] pyridine-5-carboxamide]
< 2000 | CN(C(=O)Cc1cn2c(C(=O)NC[C@@H]3CC[C@@H]4C[C@H]3C4(C)C)cccc2n1)C1CCCNC1 (stereo partly drawn) [Compound 565, N-{[(1R,2R,5R)-6,6-dimethylbicyclo[3.1.1]hept-2-yl]methyl}-2-{2-[methyl(piperidin-3-yl)amino]-2-oxoethyl}imidazo[1,2-a]pyridine-5-carboxamide]
< 2000 | COC(=O)CN(C)C(=O)c1cn2c(C(=O)NC[C@@H]3CC[C@H]4C[C@@H]3C4(C)C)cccc2n1 [Compound 481, methyl N-{[5-({[(1S,2R,5S)-6,6-dimethylbicyclo[3.1.1]hept-2-yl]methyl}carbamoyl)imidazo[1,2-a]pyridin-2-yl]carbonyl}-N-methylglycinate]
< 2000 | CC(C(=O)O)c1cn2c(C(=O)NCC34CC5CC(CC(C5)C3)C4)cccc2n1 (centres unmarked) [Compound 547, 2-{5-[(adamantan-1-ylmethyl)carbamoyl]imidazo[1,2-a]pyridin-2-yl} propanoic acid]
< 2000 | CC1(C)[C@@H]2CC[C@@H](CNC(=O)c3cccc4nc(CC(=O)N5C[C@@H]6C[C@H]5CN6)cn34)[C@H]1C2 [Compound 559, 2-{2-[(1S,4S)-2,5-diazabicyclo[2.2.1]hept-2-yl]-2-oxoethyl}-N-{[(1R,2R,5R)-6,6-dimethylbicyclo[3.1.1]hept-2-yl]methyl}imidazo[1,2-a]pyridine-5-carboxamide]

Same assay, conditions: 50% decrease in the fluorescence response of cells exposed to 80 μM of 2′(3′)-O-(4-benzoyl-benzoyl)adenosine 5′-triphosphate; Example 4A; read-out: IC50

SMILES | IC50 [nM]
O=C(NCC12CC3CC(CC(C3)C1)C2)c1cccc2nc(C(Cc3ccccc3)C(=O)O)cn12 (centres unmarked) [Compound 755, 2-{5-[(adamantan-1-ylmethyl)carbamoyl]imidazo[1,2-a]pyridin-2-yl}-3-phenylpropanoic acid] | < 2000
CNC1CCN(C(=O)CCc2cn3c(C(=O)NCC45CC6CC(CC(C6)C4)C5)cccc3n2)C1 (centres unmarked) [Compound 779, N-(adamantan-1-ylmethyl)-2-{3-[3-(methylamino)pyrrolidin-1-yl]-3-oxopropyl} imidazo[1,2-a] pyridine-5-carboxamide] | < 2000
CC(CC#N)c1cn2c(C(=O)NCC34CC5CC(CC(C5)C3)C4)cccc2n1 (centres unmarked) [Compound 748, N-(adamantan-1-ylmethyl)-2-(2-cyano-1-methylethyl) imidazo[1,2-a]pyridine-5-carboxamide] | < 2000

Results, then the compound that gave them:

IC50 [nM] | SMILES
< 2000 | COCCN(C(=O)c1cn2c(C(=O)NCC34CC5CC(CC(C5)C3)C4)cccc2n1)C1CCN(C)CC1 [Compound 681, 5-N-(adamantan-1-ylmethyl)-2-N-(2-methoxyethyl)-2-N-(1-methylpiperidin-4-yl)imidazo[1,2-a]pyridine-2,5-dicarboxamide]
< 2000 | NCC1CCCN(C(=O)c2cn3c(C(=O)NCC45CC6CC(CC(C6)C4)C5)cccc3n2)C1 (centres unmarked) [Compound 631, N-(adamantan-1-ylmethyl)-2-{[3-(aminomethyl)piperidin-1-yl]carbonyl} imidazo[1,2-a]pyridine-5-carboxamide]
< 2000 | O=C(NC1CCNCC1)c1cn2c(C(=O)NCC34CC5CC(CC(C5)C3)C4)cccc2n1 [Compound 637, 5-N-(adamantan-1-ylmethyl)-2-N-piperidin-4-ylimidazo[1,2-a]pyridine-2,5-dicarboxamide]

Same assay, conditions: 50% decrease in the fluorescence response of cells exposed to 80 μM of 2′(3′)-O-(4-benzoyl-benzoyl)adenosine 5′-triphosphate; determined as in Example 4A; read-out: IC50

IC50 [nM] | SMILES
< 2000 | CC(O)CNC(=O)Cc1cn2c(C(=O)NCC3(c4ccc(C(F)(F)F)cc4)CCCCC3)cccc2n1 (centres unmarked) [Compound 864, 2-{2-[(2-hydroxypropyl)amino]-2-oxoethyl}-N-({1-[4-(trifluoromethyl)phenyl]cyclohexyl}methyl) imidazo[1,2-a] pyridine-5-carboxamide]
< 2000 | O=C(NCC1(c2ccc(C(F)(F)F)cc2)CCCCC1)c1cccc2nc(CC(=O)N3CCSCC3)cn12 [Compound 889, 2-(2-oxo-2-thiomorpholin-4-ylethy)-N-({1-[4-(trifluoromethyl)phenyl]cyclohexyl}methyl) imidazo[1,2-a] pyridine-5-carboxamide]
< 2000 | CC(C)CC(CNC(=O)c1cccc2nc(Cn3nnc(CCO)n3)cn12)c1ccc(Cl)cc1 (centres unmarked) [Compound 918, N-[2-(4-chlorophenyl)-4-methylpentyl]-2-{[5-(2-hydroxyethyl)-2H-tetrazol-2-yl]methyl}imidazo[1,2-a]pyridine-5-carboxamide]

Same assay, conditions: P2X7 calcium mobilization, Example 4A; 50% decrease in the fluorescence response of cells exposed to 80 μM of (2′(3′)-O-(4-benzoyl-benzoyl)adenosine 5′-triphosephate); read-out: IC50

IC50 [nM] | SMILES
< 2000 | CC(C)CC(CNC(=O)c1cccc2nc(C(C)N3CCC3)cn12)c1ccc(Cl)cc1 (centres unmarked) [Compound 1033, 2-(1-azetidin-1-ylethyl)-N-[2-(4-chlorophenyl)-4-methylpentyl] imidazo[1,2-a] pyridine-5-carboxamide]
< 2000 | O=C(NCC1(c2ccc(F)cc2)CCCCC1)c1cccc2nc(CN3CCCC3)cn12 [Compound 1045, N-{[1-(4-fluorophenyl)cyclohexyl]methyl}-2-(pyrrolidin-1-ylmethyl) imidazo[1,2-a]pyridine-5-carboxamide]

Same assay, conditions: SH-SY5Y cells; 50% decrease in fluorescence response to 80 μM BzATP; read-out: IC50

IC50 [nM] | SMILES
< 2000 | CCOC(=O)Cc1nc2cccc(C(=O)NCC34CC5CC(CC(C5)C3)C4)n2c1Cl [Compound 61, {5-[(Adamantan-1-ylmethyl)-carbamoyl]-3-chloro-imidazo[1,2-a]pyridin-2-yl}-acetic acid ethyl ester]
< 2000 | CC1(O)CCN(C(=O)Cc2cn3c(C(=O)NCC45CC6CC(CC(C6)C4)C5)cccc3n2)CC1 [Compound 56, N-(adamantan-1-ylmethyl)-2-[2-(4-hydroxy-4-methylpiperidin-1-yl)-2-oxoethyl]imidazo[1,2-a]pyridine-5-carboxamide]
< 2000 | O=C(NCC(=O)N1CCOCC1)c1cn2c(C(=O)NCC34CC5CC(CC(C5)C3)C4)cccc2n1 [Compound 76, 5-N-(adamantan-1-ylmethyl)--(2-morpholin-4-yl-2-oxoethyl)imidazo[1,2-a]pyridine-2,5-dicarboxamide]
< 2000 | CS(=O)(=O)N1CCN(C(=O)Cc2cn3c(C(=O)NCC45CC6CC(CC(C6)C4)C5)cccc3n2)CC1 [Compound 44, N-(adamantan-1-ylmethyl)-2-{2-[4-(methylsulfonyl)piperazin-1-yl]-2-oxoethyl}imidazo[1,2-a]pyridine-5-carboxamide]

SMILES | IC50 [nM]
CN1CCC(N(C)C(=O)Cc2cn3c(C(=O)NCC45CC6CC(CC(C6)C4)C5)cccc3n2)C1 (centres unmarked) [Compound 39, N-(adamantan-1-ylmethyl)-2-{2-[methyl(1-methylpyrrolidin-3-yl)amino]-2-oxoethyl}imidazo[1,2-a]pyridine-5-carboxamide] | < 2000

Same assay, conditions: fluorescence response of cells exposed to 80 μM 2′(3′)-O-(4-benzoyl-benzoyl)adenosine 5′-triphosphate; Example 4A; read-out: IC50

IC50 [nM] | SMILES
< 2000 | COC1CCN(C(=O)Cc2cn3c(C(=O)NCC(CC(C)C)c4ccccc4)cccc3n2)CC1 (centres unmarked) [Compound 239, 2-[2-(4-methoxypiperidin-1-yl)-2-oxoethyl]-N-(4-methyl-2-phenylpentyl)imidazo [1,2-a]pyridine-5-carboxamide]
< 2000 | O=C(O)CCc1cn2c(C(=O)NCC34CC5CC(CC(C5)C3)C4)cccc2n1 [Compound 296, 3-{5-[(adamantan-1-ylmethyl)carbamoyl]imidazo[1,2-a]pyridin-2-yl}propanoic acid]
